Experimental data as given in the NIST ThermoML archive (doi:10.1016/j.fluid.2014.05.032).

Test: xn = mol fraction of the nth substance listed
Conditions: Liquid, Constant-volume piezometry

CCO [ethanol] + O
Conditions	mass density [kg/m3]
292.95 K, 2450 kPa, x1 = 0.073	974.2
292.95 K, 11320 kPa, x1 = 0.073	977.6
292.95 K, 21120 kPa, x1 = 0.073	981.2
292.95 K, 30930 kPa, x1 = 0.073	985
292.95 K, 39230 kPa, x1 = 0.073	988
297.05 K, 2490 kPa, x1 = 0.0163	990.8
297.05 K, 11280 kPa, x1 = 0.0163	993.5
297.05 K, 21070 kPa, x1 = 0.0163	997.5
297.05 K, 30810 kPa, x1 = 0.0163	1003.2
297.05 K, 39170 kPa, x1 = 0.0163	1006.1
298.15 K, 2560 kPa, x1 = 0.0946	965.8
298.15 K, 10120 kPa, x1 = 0.0946	968.6
298.15 K, 20060 kPa, x1 = 0.0946	972.4
298.15 K, 29980 kPa, x1 = 0.0946	976.1
298.15 K, 40030 kPa, x1 = 0.0946	979.8
298.35 K, 2590 kPa, x1 = 0.0343	984.1
298.35 K, 11280 kPa, x1 = 0.0343	987.9
298.35 K, 21300 kPa, x1 = 0.0343	991.9
298.35 K, 31040 kPa, x1 = 0.0343	995.7
298.35 K, 39150 kPa, x1 = 0.0343	998.6
323.15 K, 2570 kPa, x1 = 0.0163	980.6
323.15 K, 2610 kPa, x1 = 0.073	959.3
323.15 K, 2730 kPa, x1 = 0.0946	951.3
323.15 K, 10940 kPa, x1 = 0.073	962.8
323.15 K, 11140 kPa, x1 = 0.0946	954.9
323.15 K, 11390 kPa, x1 = 0.0163	984.4
323.15 K, 20710 kPa, x1 = 0.0946	958.8
323.15 K, 20790 kPa, x1 = 0.073	966.7
323.15 K, 21080 kPa, x1 = 0.0163	988.4
323.15 K, 30360 kPa, x1 = 0.073	970.6
323.15 K, 30890 kPa, x1 = 0.0163	992.3
323.15 K, 32400 kPa, x1 = 0.0946	963.3
323.15 K, 38480 kPa, x1 = 0.0163	995.2
323.15 K, 38600 kPa, x1 = 0.073	973.6
323.15 K, 39810 kPa, x1 = 0.0946	966.2
323.65 K, 2610 kPa, x1 = 0.0343	973.6
323.65 K, 11320 kPa, x1 = 0.0343	977.4
323.65 K, 21200 kPa, x1 = 0.0343	981.4
323.65 K, 30930 kPa, x1 = 0.0343	985.2
323.65 K, 39010 kPa, x1 = 0.0343	988.2
348.15 K, 2730 kPa, x1 = 0.0946	933.7
348.15 K, 3220 kPa, x1 = 0.0163	967.1
348.15 K, 3260 kPa, x1 = 0.0343	959.9
348.15 K, 3330 kPa, x1 = 0.073	943
348.15 K, 10980 kPa, x1 = 0.0163	970.6
348.15 K, 11060 kPa, x1 = 0.073	946.6
348.15 K, 11390 kPa, x1 = 0.0946	937.4
348.15 K, 11590 kPa, x1 = 0.0343	963.5
348.15 K, 20750 kPa, x1 = 0.0163	974.7
348.15 K, 20870 kPa, x1 = 0.073	950.8
348.15 K, 20870 kPa, x1 = 0.0946	941.6
348.15 K, 21160 kPa, x1 = 0.0343	967.5
348.15 K, 29500 kPa, x1 = 0.0163	978.3
348.15 K, 29730 kPa, x1 = 0.0946	945.4
348.15 K, 30400 kPa, x1 = 0.073	955
348.15 K, 30850 kPa, x1 = 0.0343	971.3
348.15 K, 37790 kPa, x1 = 0.0946	948.7
348.15 K, 39600 kPa, x1 = 0.073	958.9
348.15 K, 39860 kPa, x1 = 0.0343	974.7
348.15 K, 39910 kPa, x1 = 0.0163	982.3
373.15 K, 3330 kPa, x1 = 0.0946	908.6
373.15 K, 3370 kPa, x1 = 0.0163	950.2
373.15 K, 3390 kPa, x1 = 0.0343	942.1
373.15 K, 3510 kPa, x1 = 0.073	923.9
373.15 K, 11320 kPa, x1 = 0.0163	953.8
373.15 K, 11320 kPa, x1 = 0.073	927.7
373.15 K, 11390 kPa, x1 = 0.0946	912.8
373.15 K, 11470 kPa, x1 = 0.0343	945.9
373.15 K, 21080 kPa, x1 = 0.073	932.5
373.15 K, 21120 kPa, x1 = 0.0343	950.3
373.15 K, 21160 kPa, x1 = 0.0163	958.3
373.15 K, 21200 kPa, x1 = 0.0946	917.7
373.15 K, 30520 kPa, x1 = 0.0343	954.5
373.15 K, 30600 kPa, x1 = 0.0163	962.5
373.15 K, 30670 kPa, x1 = 0.073	937
373.15 K, 30850 kPa, x1 = 0.0946	922.3
373.15 K, 35700 kPa, x1 = 0.0163	964.6
373.15 K, 37230 kPa, x1 = 0.073	939.9
373.15 K, 39000 kPa, x1 = 0.0343	957.9
373.15 K, 39410 kPa, x1 = 0.0946	927.3
398.15 K, 3510 kPa, x1 = 0.0946	885.8
398.15 K, 3550 kPa, x1 = 0.0343	921.6
398.15 K, 3710 kPa, x1 = 0.0163	930.3
398.15 K, 3710 kPa, x1 = 0.073	901.9
398.15 K, 11430 kPa, x1 = 0.0946	890.4
398.15 K, 11510 kPa, x1 = 0.073	906.2
398.15 K, 11630 kPa, x1 = 0.0163	934.4
398.15 K, 11730 kPa, x1 = 0.0343	925.8
398.15 K, 21160 kPa, x1 = 0.073	911.4
398.15 K, 21200 kPa, x1 = 0.0946	896
398.15 K, 21360 kPa, x1 = 0.0163	939.3
398.15 K, 21530 kPa, x1 = 0.0343	930.7
398.15 K, 30790 kPa, x1 = 0.0163	943.7
398.15 K, 30790 kPa, x1 = 0.073	916.3
398.15 K, 30850 kPa, x1 = 0.0946	901.1
398.15 K, 30930 kPa, x1 = 0.0343	935.2
398.15 K, 37300 kPa, x1 = 0.0343	938.3
398.15 K, 39500 kPa, x1 = 0.073	920.7
398.15 K, 39610 kPa, x1 = 0.0946	905.3
398.15 K, 39890 kPa, x1 = 0.0163	948
423.15 K, 2680 kPa, x1 = 0.0163	906.7
423.15 K, 2680 kPa, x1 = 0.0343	897.3
423.15 K, 2750 kPa, x1 = 0.0946	860.1
423.15 K, 2760 kPa, x1 = 0.073	875.9
423.15 K, 10050 kPa, x1 = 0.0946	863.9
423.15 K, 10170 kPa, x1 = 0.0163	911
423.15 K, 10240 kPa, x1 = 0.0343	901.8
423.15 K, 10710 kPa, x1 = 0.073	881.1
423.15 K, 20110 kPa, x1 = 0.073	887.1
423.15 K, 20200 kPa, x1 = 0.0946	869.5
423.15 K, 20970 kPa, x1 = 0.0163	917
423.15 K, 21070 kPa, x1 = 0.0343	908.1
423.15 K, 30100 kPa, x1 = 0.0946	875.5
423.15 K, 30490 kPa, x1 = 0.073	893
423.15 K, 30570 kPa, x1 = 0.0163	922.4
423.15 K, 30640 kPa, x1 = 0.0343	913.4
423.15 K, 39560 kPa, x1 = 0.0163	927.2
423.15 K, 39680 kPa, x1 = 0.0343	918.2
423.15 K, 39860 kPa, x1 = 0.0946	882.2
423.15 K, 40110 kPa, x1 = 0.073	898.6
448.15 K, 3860 kPa, x1 = 0.0946	831.7
448.15 K, 3960 kPa, x1 = 0.0163	882.3
448.15 K, 4000 kPa, x1 = 0.073	849.3
448.15 K, 4080 kPa, x1 = 0.0343	872.1
448.15 K, 11550 kPa, x1 = 0.0946	837.9
448.15 K, 11920 kPa, x1 = 0.0163	887.5
448.15 K, 11960 kPa, x1 = 0.0343	877.7
448.15 K, 12160 kPa, x1 = 0.073	855.6
448.15 K, 21530 kPa, x1 = 0.0163	893.7
448.15 K, 21690 kPa, x1 = 0.073	862.7
448.15 K, 21690 kPa, x1 = 0.0946	845.8
448.15 K, 22180 kPa, x1 = 0.0343	884.2
448.15 K, 30990 kPa, x1 = 0.0946	852.6
448.15 K, 31010 kPa, x1 = 0.0343	889.8
448.15 K, 31050 kPa, x1 = 0.0163	899.4
448.15 K, 31170 kPa, x1 = 0.073	869.2
448.15 K, 37210 kPa, x1 = 0.073	873
448.15 K, 38340 kPa, x1 = 0.0163	903.5
448.15 K, 40060 kPa, x1 = 0.0343	894.8
448.15 K, 40140 kPa, x1 = 0.0946	858.6
